Experiments:
Assay in all cases: relative viability (nuclei count vs DMSO), 5 days (fraction); higher = more cells survive
Dovitinib + Vorinostat = compound: CN1CCN(c2ccc3nc(-c4c(N)c5c(F)cccc5[nH]c4=O)[nH]c3c2)CC1 [Dovitinib] + O=C(CCCCCCC(=O)Nc1ccccc1)NO [Vorinostat] (partner 1 µM)
Method in brief: (§1)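 Medians of duplicate plates are given as relative viability. That measure is the nuclei count in treated wells divided by the count in vehicle wells. Counts were taken on 4× images of lung cancer cell lines in 1536-well plates, 5 days after pin-tool dosing the day after seeding with one drug alone or a fixed anchor-drug dose plus five library-drug doses (not always all listed) in √10 steps.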

Dovitinib + Pictilisib = compound: CN1CCN(c2ccc3nc(-c4c(N)c5c(F)cccc5[nH]c4=O)[nH]c3c2)CC1 [Dovitinib] + CS(=O)(=O)N1CCN(Cc2cc3nc(-c4cccc5[nH]ncc45)nc(N4CCOCC4)c3s2)CC1 [Pictilisib] (partner 1 µM)
Method in brief: as §1

Dovitinib + Crizotinib = compound: CN1CCN(c2ccc3nc(-c4c(N)c5c(F)cccc5[nH]c4=O)[nH]c3c2)CC1 [Dovitinib] + C[C@@H](Oc1cc(-c2cnn(C3CCNCC3)c2)cnc1N)c1c(Cl)ccc(F)c1Cl [Crizotinib] (partner 1 µM)
Method in brief: as §1

Dovitinib + Dasatinib = compound: CN1CCN(c2ccc3nc(-c4c(N)c5c(F)cccc5[nH]c4=O)[nH]c3c2)CC1 [Dovitinib] + Cc1nc(Nc2ncc(C(=O)Nc3c(C)cccc3Cl)s2)cc(N2CCN(CCO)CC2)n1 [Dasatinib] (partner 0.075 µM)
Method in brief: as §1

| Cell Line | relative viability (Dovitinib + Vorinostat; first compound 0.02 µM) | relative viability (Dovitinib + Vorinostat; first compound 0.06325 µM) | relative viability (Dovitinib + Vorinostat; first compound 0.2 µM) | relative viability (Dovitinib + Vorinostat; first compound 0.6325 µM) | relative viability (Dovitinib + Vorinostat; first compound 2 µM) | relative viability (Dovitinib + Pictilisib; first compound 0.02 µM) | relative viability (Dovitinib + Pictilisib; first compound 0.06325 µM) | relative viability (Dovitinib + Pictilisib; first compound 0.2 µM) | relative viability (Dovitinib + Pictilisib; first compound 0.6325 µM) | relative viability (Dovitinib + Pictilisib; first compound 2 µM) | relative viability (Dovitinib + Crizotinib; first compound 0.02 µM) | relative viability (Dovitinib + Crizotinib; first compound 0.06325 µM) | relative viability (Dovitinib + Crizotinib; first compound 0.2 µM) | relative viability (Dovitinib + Crizotinib; first compound 0.6325 µM) | relative viability (Dovitinib + Crizotinib; first compound 2 µM) | relative viability (Dovitinib + Dasatinib; first compound 0.02 µM) | relative viability (Dovitinib + Dasatinib; first compound 0.06325 µM) | relative viability (Dovitinib + Dasatinib; first compound 0.2 µM) | relative viability (Dovitinib + Dasatinib; first compound 0.6325 µM) | relative viability (Dovitinib + Dasatinib; first compound 2 µM) |
| --- | --- | --- | --- | --- | --- | --- | --- | --- | --- | --- | --- | --- | --- | --- | --- | --- | --- | --- | --- | --- |
| HCC-366 | 0.325 | 0.353 | 0.338 | 0.429 | 0.385 | 0.172 | 0.123 | 0.159 | 0.137 | 0.186 | 0.571 | 0.6 | 0.486 | 0.61 | 0.562 | 0.687 | 0.604 | 0.648 | 0.616 | 0.618 |
| HCC-827 | 0.799 | 0.867 | 0.876 | 0.841 | 0.805 | 0.932 | 0.942 | 1.07 | 0.963 | 1.01 | 0.91 | 0.867 | 0.932 | 0.93 | 0.94 | 0.358 | 0.327 | 0.357 | 0.366 | 0.407 |
| HOP-62 | 0.469 | 0.469 | 0.588 | 0.667 | 0.797 | 0.578 | 0.753 | 0.605 | 0.665 | 0.632 | 0.861 | 0.923 | 1.15 | 0.943 | 1.01 | 0.643 | 0.601 | 0.64 | 0.632 | 0.662 |
| IA-LM | 0.962 | 0.883 | 1.13 | 0.973 | 0.897 | 0.412 | 0.333 | 0.481 | 0.279 | 0.337 | 0.678 | 0.838 | 0.73 | 0.722 | 0.682 | – | – | – | – | – |
| LC-2-ad | 0.674 | 0.735 | 0.712 | 0.758 | 0.804 | 0.535 | 0.463 | 0.446 | 0.439 | 0.36 | 0.486 | 0.436 | 0.5 | 0.453 | 0.465 | 0.661 | 0.524 | 0.55 | 0.514 | 0.429 |
| LCLC-97TM1 | 0.719 | 0.612 | 0.734 | 0.688 | 0.751 | 0.361 | 0.135 | 0.215 | 0.205 | 0.207 | 0.332 | 0.305 | 0.372 | 0.275 | 0.253 | 0.8 | 0.896 | 0.887 | 0.876 | 0.775 |
| LCLC-103H | 0.731 | 0.746 | 0.756 | 0.872 | 0.8 | 0.661 | 0.555 | 0.645 | 0.614 | 0.577 | 0.992 | 0.978 | 0.993 | 0.946 | 0.916 | 0.487 | 0.503 | 0.461 | 0.374 | 0.489 |
| LK-2 | 0.262 | 0.403 | 0.373 | 0.373 | 0.364 | 0.525 | 0.546 | 0.475 | 0.516 | 0.57 | 0.216 | 0.215 | 0.275 | 0.223 | 0.281 | 0.282 | 0.242 | 0.281 | 0.325 | 0.396 |
| LOU-NH91 | 0.961 | 0.846 | 0.919 | 0.984 | 0.94 | 0.523 | 0.553 | 0.526 | 0.518 | 0.535 | 0.767 | 0.75 | 0.729 | 0.74 | 0.798 | 0.586 | 0.553 | 0.549 | 0.64 | 0.574 |
| LU99A | 0.456 | 0.555 | 0.46 | 0.615 | 0.624 | 0.312 | 0.323 | 0.336 | 0.359 | 0.34 | 0.548 | 0.597 | 0.601 | 0.561 | 0.547 | 0.508 | 0.448 | 0.572 | 0.517 | 0.46 |
| LXF-289 | 0.781 | 0.836 | 0.807 | 0.847 | 0.746 | 0.716 | 0.801 | 0.842 | 0.862 | 0.783 | 0.736 | 0.816 | 0.789 | 0.794 | 0.838 | 0.201 | 0.206 | 0.263 | 0.253 | 0.266 |
| NCI-H522 | 0.811 | 0.848 | 0.923 | 0.837 | 1.01 | – | – | – | – | – | – | – | – | – | – | 0.857 | 0.867 | 0.93 | 0.706 | 0.887 |
| NCI-H1299 | – | – | – | – | – | 0.897 | 0.8 | 0.69 | 0.626 | 0.789 | 0.941 | 0.968 | 0.915 | 0.942 | 1.01 | – | – | – | – | – |
| NCI-H1395 | 0.678 | 0.622 | 0.787 | 0.811 | 0.924 | 0.563 | 0.518 | 0.651 | 0.783 | 0.612 | – | – | – | – | – | 0.448 | 0.423 | 0.437 | 0.402 | 0.425 |
| NCI-H1563 | – | – | – | – | – | 0.631 | 0.629 | 0.685 | 0.635 | 0.672 | 0.829 | 0.855 | 0.839 | 0.838 | 0.814 | 0.478 | 0.475 | 0.469 | 0.507 | 0.509 |
| NCI-H1648 | 0.402 | 0.422 | 0.425 | 0.361 | 0.516 | – | – | – | – | – | – | – | – | – | – | – | – | – | – | – |
| NCI-H1703 | – | – | – | – | – | 0.215 | 0.24 | 0.294 | 0.232 | 0.208 | 0.651 | 0.836 | 0.779 | 0.547 | 0.31 | – | – | – | – | – |
| NCI-H1792 | – | – | – | – | – | 0.315 | 0.205 | 0.294 | 0.288 | 0.291 | 0.998 | 0.977 | 0.997 | 1.04 | 0.971 | 0.873 | 0.738 | 0.775 | 0.793 | 0.803 |
| NCI-H1793 | 1.01 | 0.753 | 0.751 | 0.891 | 0.773 | 0.395 | 0.282 | 0.419 | 0.375 | 0.31 | – | – | – | – | – | 0.458 | 0.364 | 0.367 | 0.385 | 0.503 |
| NCI-H2342 | 0.738 | 0.71 | 0.781 | 0.717 | 0.735 | – | – | – | – | – | – | – | – | – | – | 0.339 | 0.324 | 0.337 | 0.298 | 0.318 |
